From US8192962B2, “Processes for detecting toxic substances” (Daikin Industries, Ltd., priority 2001, dated 2012)

System: Energy system protein genes
Test: DNA chip mRNA expression in yeast, energy system protein genes (Table 4)
Type: cell-based, Saccharomyces cerevisiae S288C
How it was run: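 Values are treated/untreated fluorescence ratios from a whole-genome yeast DNA chip hybridized over 12 hours at 65° C with Cy3- or Cy5-labelled cDNA from poly(A) mRNA. Log-phase S288C yeast in YPD at 25° C had received a single toxic chemical for two hours, dosed to slow growth without killing.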

C=CC=O [(14), acrolein]
The level of expressed mRNA in the presence of chemical substance/The level of expressed mRNA in the absence of chemical substance (yeast gene YJR048W): 2.5 | The level of expressed mRNA in the presence of chemical substance/The level of expressed mRNA in the absence of chemical substance (yeast gene YJR121W, cells incubated two hours with the chemical substance): 0.7 | The level of expressed mRNA in the presence of chemical substance/The level of expressed mRNA in the absence of chemical substance (yeast gene YJR155W): 9.4 | The level of expressed mRNA in the presence of chemical substance/The level of expressed mRNA in the absence of chemical substance (yeast gene YKL016C, cells incubated two hours with the chemical substance): 1.6 | The level of expressed mRNA in the presence of chemical substance/The level of expressed mRNA in the absence of chemical substance (yeast gene YKL060C, cells incubated two hours with the chemical substance): 0.8 | The level of expressed mRNA in the presence of chemical substance/The level of expressed mRNA in the absence of chemical substance (yeast gene YKL141W, cells incubated two hours with the chemical substance): 1.4 | The level of expressed mRNA in the presence of chemical substance/The level of expressed mRNA in the absence of chemical substance (yeast gene YKL148C, cells incubated two hours with the chemical substance): 0.8 | The level of expressed mRNA in the presence of chemical substance/The level of expressed mRNA in the absence of chemical substance (yeast gene YKL150W): 1.4 | The level of expressed mRNA in the presence of chemical substance/The level of expressed mRNA in the absence of chemical substance (yeast gene YKR009C, cells incubated two hours with the chemical substance): 1.0 | The level of expressed mRNA in the presence of chemical substance/The level of expressed mRNA in the absence of chemical substance (yeast gene YKR058W, cells incubated two hours with the chemical substance, 25° C., YPD medium): 1.3 | The level of expressed mRNA in the presence of chemical substance/The level of expressed mRNA in the absence of chemical substance (yeast gene YKR097W): 2.1 | The level of expressed mRNA in the presence of chemical substance/The level of expressed mRNA in the absence of chemical substance (yeast gene YLL041C, cells incubated two hours with the chemical substance): 1.2 | The level of expressed mRNA in the presence of chemical substance/The level of expressed mRNA in the absence of chemical substance (yeast gene YLR038C, cells incubated two hours with the chemical substance): 1.6 | The level of expressed mRNA in the presence of chemical substance/The level of expressed mRNA in the absence of chemical substance (yeast gene YLR044C, cells incubated two hours with the chemical substance): 0.5 | The level of expressed mRNA in the presence of chemical substance/The level of expressed mRNA in the absence of chemical substance (yeast gene YLR134W, cells incubated two hours with the chemical substance): 0.6 | The level of expressed mRNA in the presence of chemical substance/The level of expressed mRNA in the absence of chemical substance (yeast gene YLR258W, cells incubated two hours with the chemical substance): 1.2 | The level of expressed mRNA in the presence of chemical substance/The level of expressed mRNA in the absence of chemical substance (yeast gene YLR284C, cells incubated two hours with the chemical substance): 1.3 | The level of expressed mRNA in the presence of chemical substance/The level of expressed mRNA in the absence of chemical substance (yeast gene YLR295C, cells incubated two hours with the chemical substance, 25° C., YPD medium): 1.2 | The level of expressed mRNA in the presence of chemical substance/The level of expressed mRNA in the absence of chemical substance (yeast gene YLR304C, cells incubated two hours with the chemical substance): 0.7 | The level of expressed mRNA in the presence of chemical substance/The level of expressed mRNA in the absence of chemical substance (yeast gene YLR345W): 1.5 | The level of expressed mRNA in the presence of chemical substance/The level of expressed mRNA in the absence of chemical substance (yeast gene YLR354C, cells incubated two hours with the chemical substance): 0.9 | The level of expressed mRNA in the presence of chemical substance/The level of expressed mRNA in the absence of chemical substance (yeast gene YLR377C, cells incubated two hours with the chemical substance): 2.9 | The level of expressed mRNA in the presence of chemical substance/The level of expressed mRNA in the absence of chemical substance (yeast gene YLR395C, cells incubated two hours with the chemical substance): 1.7 | The level of expressed mRNA in the presence of chemical substance/The level of expressed mRNA in the absence of chemical substance (yeast gene YML087C): 2.1 | The level of expressed mRNA in the presence of chemical substance/The level of expressed mRNA in the absence of chemical substance (yeast gene YML120C, cells incubated two hours with the chemical substance): 0.8 | The level of expressed mRNA in the presence of chemical substance/The level of expressed mRNA in the absence of chemical substance (yeast gene YML129C, cells incubated two hours with the chemical substance): 1.4 | The level of expressed mRNA in the presence of chemical substance/The level of expressed mRNA in the absence of chemical substance (yeast gene YMR073C, cells incubated two hours with the chemical substance): 2.0 | The level of expressed mRNA in the presence of chemical substance/The level of expressed mRNA in the absence of chemical substance (yeast gene YMR118C): 0.9 | The level of expressed mRNA in the presence of chemical substance/The level of expressed mRNA in the absence of chemical substance (yeast gene YMR205C, cells incubated two hours with the chemical substance): 0.5 | The level of expressed mRNA in the presence of chemical substance/The level of expressed mRNA in the absence of chemical substance (yeast gene YMR261C, cells incubated two hours with the chemical substance): 0.6 | The level of expressed mRNA in the presence of chemical substance/The level of expressed mRNA in the absence of chemical substance (yeast gene YMR267W, cells incubated two hours with the chemical substance, 25° C., YPD medium): 1.0 | The level of expressed mRNA in the presence of chemical substance/The level of expressed mRNA in the absence of chemical substance (yeast gene YMR323W, cells incubated two hours with the chemical substance): 1.2 | The level of expressed mRNA in the presence of chemical substance/The level of expressed mRNA in the absence of chemical substance (yeast gene YNL071W): 0.8 | The level of expressed mRNA in the presence of chemical substance/The level of expressed mRNA in the absence of chemical substance (yeast gene YNL202W, cells incubated two hours with the chemical substance): 1.0 | The level of expressed mRNA in the presence of chemical substance/The level of expressed mRNA in the absence of chemical substance (yeast gene YNL241C): 1.1 | The level of expressed mRNA in the presence of chemical substance/The level of expressed mRNA in the absence of chemical substance (yeast gene YNL331C): 7.5 | The level of expressed mRNA in the presence of chemical substance/The level of expressed mRNA in the absence of chemical substance (yeast gene YOL086C, cells incubated two hours with the chemical substance): 0.6 | The level of expressed mRNA in the presence of chemical substance/The level of expressed mRNA in the absence of chemical substance (yeast gene YOL165C): 9.1 | The level of expressed mRNA in the presence of chemical substance/The level of expressed mRNA in the absence of chemical substance (yeast gene YOR142W, cells incubated two hours with the chemical substance): 0.8 | The level of expressed mRNA in the presence of chemical substance/The level of expressed mRNA in the absence of chemical substance (yeast gene YOR178C, cells incubated two hours with the chemical substance): 1.0 | The level of expressed mRNA in the presence of chemical substance/The level of expressed mRNA in the absence of chemical substance (yeast gene YOR388C, cells incubated two hours with the chemical substance): 1.3 | The level of expressed mRNA in the presence of chemical substance/The level of expressed mRNA in the absence of chemical substance (yeast gene YPL031C, cells incubated two hours with the chemical substance): 0.9 | The level of expressed mRNA in the presence of chemical substance/The level of expressed mRNA in the absence of chemical substance (yeast gene YPL061W, cells incubated two hours with the chemical substance): 0.6 | The level of expressed mRNA in the presence of chemical substance/The level of expressed mRNA in the absence of chemical substance (yeast gene YPL088W): 1.6 | The level of expressed mRNA in the presence of chemical substance/The level of expressed mRNA in the absence of chemical substance (yeast gene YPL171C): 9.3 | The level of expressed mRNA in the presence of chemical substance/The level of expressed mRNA in the absence of chemical substance (yeast gene YPL240C): 0.7 | The level of expressed mRNA in the presence of chemical substance/The level of expressed mRNA in the absence of chemical substance (yeast gene YPL262W, cells incubated two hours with the chemical substance): 1.2 | The level of expressed mRNA in the presence of chemical substance/The level of expressed mRNA in the absence of chemical substance (yeast gene YPL275W, cells incubated two hours with the chemical substance): 1.0 | The level of expressed mRNA in the presence of chemical substance/The level of expressed mRNA in the absence of chemical substance (yeast gene YPL276W, cells incubated two hours with the chemical substance): 0.9 | The level of expressed mRNA in the presence of chemical substance/The level of expressed mRNA in the absence of chemical substance (yeast gene YPR048W, cells incubated two hours with the chemical substance): 1.2 | The level of expressed mRNA in the presence of chemical substance/The level of expressed mRNA in the absence of chemical substance (yeast gene YPR184W, cells incubated two hours with the chemical substance): 1.3
